Reference: ChEMBL document CHEMBL3885881, “DrugMatrix”

Key:
Rattus norvegicus [1] = species: Rattus norvegicus; test: DrugMatrix - Regimen: Daily Repeat; assay type: toxicity, organism-based, Sprague-Dawley; set-up: regimen Daily Repeat, gender Male, age 6-8 weeks; conditions: in vivo, po, 17 mg/kg, route oral GAVAGE, dose level High, vehicle .5 % CMC; for ABSOLUTE BASOPHIL / ABSOLUTE EOSINOPHIL / ABSOLUTE LYMPHOCYTE / ABSOLUTE MONOCYTE / ABSOLUTE SEGMENTED NEUTROPHIL / BASOPHIL / EOSINOPHIL / ERYTHROCYTE COUNT / HEMATOCRIT / HEMOGLOBIN / LEUKOCYTE COUNT / LYMPHOCYTE / MEAN CORPUSCULAR HEMOGLOBIN / MEAN CORPUSCULAR HEMOGLOBIN CONCENTRATION / MEAN CORPUSCULAR VOLUME / MONOCYTE / NEUTROPHIL / NUCLEATED RED BLOOD CELLS / PLATELET COUNT: tissue Blood; for ALANINE AMINOTRANSFERASE / ALBUMIN / ALKALINE PHOSPHATASE / ASPARTATE AMINOTRANSFERASE / BLOOD UREA NITROGEN / CARBON DIOXIDE / CHLORIDE / CHOLESTEROL / CREATININE / GLUCOSE / LACTATE DEHYDROGENASE / LIPASE / PHOSPHORUS / POTASSIUM / SODIUM / TOTAL BILIRUBIN / TOTAL PROTEIN / URIC ACID: tissue Plasma
Rattus norvegicus [2] = species: Rattus norvegicus; assay type: toxicity, organism-based, Sprague-Dawley; conditions: in vivo, po, 17 mg/kg, 24 h, route oral GAVAGE, dose level High, time 1 day, vehicle .5 % CMC
Description: DrugMatrix - Regimen: Single

## COc1ccc(C(=O)Nc2c(Cl)cncc2Cl)cc1OC1CCCC1
Rattus norvegicus [1]; 72 h, time 3 day
  ABSOLUTE BASOPHIL: 0 CELLS/uL
  ABSOLUTE EOSINOPHIL: 110.33 CELLS/uL
  ABSOLUTE LYMPHOCYTE: 17172 CELLS/uL
  ABSOLUTE MONOCYTE: 305.67 CELLS/uL
  ABSOLUTE SEGMENTED NEUTROPHIL: 3612 CELLS/uL
  BASOPHIL: 0%
  EOSINOPHIL: 0.67%
  ERYTHROCYTE COUNT: 5.87 x10E6/uL
  HEMATOCRIT: 36.6%
  HEMOGLOBIN: 13.33 G/DL
  LEUKOCYTE COUNT: 21.2 x10E3/uL
  LYMPHOCYTE: 82.67%
  MEAN CORPUSCULAR HEMOGLOBIN: 22.73 pg
  MEAN CORPUSCULAR HEMOGLOBIN CONCENTRATION: 36.47 G/DL
  MEAN CORPUSCULAR VOLUME: 62.43 fL
  MONOCYTE: 1.33%
  NEUTROPHIL: 15.33%
  NUCLEATED RED BLOOD CELLS: 0 /100WBC
  PLATELET COUNT: 1117.33 x10E3/uL
  ALANINE AMINOTRANSFERASE: 51.67 u/L
  ALBUMIN: 3.77 G/DL
  ALKALINE PHOSPHATASE: 361.67 u/L
  ASPARTATE AMINOTRANSFERASE: 68.67 u/L
  BLOOD UREA NITROGEN: 17.33 mg/dL
  CARBON DIOXIDE: 31.33 mmol/L
  CHLORIDE: 103 MEQ/L
  CHOLESTEROL: 74.67 mg/dL
  CREATININE: 0.18 mg/dL
  GLUCOSE: 188.33 mg/dL
  LACTATE DEHYDROGENASE: 139 u/L
  LIPASE: 9.33 u/L
  PHOSPHORUS: 12.77 mg/dL
  POTASSIUM: 6.6 MEQ/L
  SODIUM: 149.03 MEQ/L
  TOTAL BILIRUBIN: 0.13 mg/dL
  TOTAL PROTEIN: 6.1 G/DL
  URIC ACID: 2.07 mg/dL
Rattus norvegicus [1]; 120 h, time 5 day
  ABSOLUTE BASOPHIL: 0 CELLS/uL
  ABSOLUTE EOSINOPHIL: 84.67 CELLS/uL
  ABSOLUTE LYMPHOCYTE: 11281 CELLS/uL
  ABSOLUTE MONOCYTE: 472.33 CELLS/uL
  ABSOLUTE SEGMENTED NEUTROPHIL: 1195.33 CELLS/uL
  BASOPHIL: 0%
  EOSINOPHIL: 0.67%
  ERYTHROCYTE COUNT: 6 x10E6/uL
  HEMATOCRIT: 36.73%
  HEMOGLOBIN: 13.33 G/DL
  LEUKOCYTE COUNT: 13.03 x10E3/uL
  LYMPHOCYTE: 86.33%
  MEAN CORPUSCULAR HEMOGLOBIN: 22.23 pg
  MEAN CORPUSCULAR HEMOGLOBIN CONCENTRATION: 36.3 G/DL
  MEAN CORPUSCULAR VOLUME: 61.23 fL
  MONOCYTE: 3.67%
  NEUTROPHIL: 9.33%
  NUCLEATED RED BLOOD CELLS: 0 /100WBC
  PLATELET COUNT: 1070.67 x10E3/uL
  ALANINE AMINOTRANSFERASE: 64 u/L
  ALBUMIN: 4.1 G/DL
  ALKALINE PHOSPHATASE: 400 u/L
  ASPARTATE AMINOTRANSFERASE: 136.33 u/L
  BLOOD UREA NITROGEN: 13 mg/dL
  CARBON DIOXIDE: 34.33 mmol/L
  CHLORIDE: 101 MEQ/L
  CHOLESTEROL: 65.33 mg/dL
  CREATININE: 0.19 mg/dL
  GLUCOSE: 166.33 mg/dL
  LACTATE DEHYDROGENASE: 276.33 u/L
  LIPASE: 8.33 u/L
  PHOSPHORUS: 11.3 mg/dL
  POTASSIUM: 6.12 MEQ/L
  SODIUM: 149.43 MEQ/L
  TOTAL BILIRUBIN: 0.2 mg/dL
  TOTAL PROTEIN: 6.63 G/DL
  URIC ACID: 1.5 mg/dL
Rattus norvegicus [1]; […], time 14 day
  ABSOLUTE BASOPHIL: 0 CELLS/uL
  ABSOLUTE EOSINOPHIL: 107.5 CELLS/uL
  ABSOLUTE LYMPHOCYTE: 9595.25 CELLS/uL
  ABSOLUTE MONOCYTE: 1138.5 CELLS/uL
  ABSOLUTE SEGMENTED NEUTROPHIL: 8133.75 CELLS/uL
  BASOPHIL: 0%
  EOSINOPHIL: 0.5%
  ERYTHROCYTE COUNT: 6.06 x10E6/uL
  HEMATOCRIT: 34.55%
  HEMOGLOBIN: 12.95 G/DL
  LEUKOCYTE COUNT: 18.98 x10E3/uL
  LYMPHOCYTE: 60.25%
  MEAN CORPUSCULAR HEMOGLOBIN: 21.4 pg
  MEAN CORPUSCULAR HEMOGLOBIN CONCENTRATION: 37.5 G/DL
  MEAN CORPUSCULAR VOLUME: 57.05 fL
  MONOCYTE: 5%
  NEUTROPHIL: 34.25%
  NUCLEATED RED BLOOD CELLS: 0 /100WBC
  PLATELET COUNT: 1068 x10E3/uL
  ALANINE AMINOTRANSFERASE: 48.25 u/L
  ALBUMIN: 3.22 G/DL
  ALKALINE PHOSPHATASE: 273 u/L
  ASPARTATE AMINOTRANSFERASE: 67 u/L
  BLOOD UREA NITROGEN: 14.25 mg/dL
  CARBON DIOXIDE: 33.75 mmol/L
  CHLORIDE: 100.5 MEQ/L
  CHOLESTEROL: 56 mg/dL
  CREATININE: 0.24 mg/dL
  GLUCOSE: 131 mg/dL
  LACTATE DEHYDROGENASE: 107.75 u/L
  LIPASE: 9 u/L
  PHOSPHORUS: 8.28 mg/dL
  POTASSIUM: 5.54 MEQ/L
  SODIUM: 148.15 MEQ/L
  TOTAL BILIRUBIN: 0.18 mg/dL
  TOTAL PROTEIN: 6.12 G/DL
  URIC ACID: 0.62 mg/dL
Rattus norvegicus [2]; tissue Blood
  ABSOLUTE EOSINOPHIL: 176.33 CELLS/uL
  ABSOLUTE LYMPHOCYTE: 11028.33 CELLS/uL
  ABSOLUTE MONOCYTE: 409.33 CELLS/uL
  ABSOLUTE SEGMENTED NEUTROPHIL: 1619.33 CELLS/uL
  BASOPHIL: 0%
  EOSINOPHIL: 1.33%
  ERYTHROCYTE COUNT: 5.33 x10E6/uL
  HEMATOCRIT: 33.03%
  HEMOGLOBIN: 12.1 G/DL
  LEUKOCYTE COUNT: 13.23 x10E3/uL
  LYMPHOCYTE: 83.33%
  MEAN CORPUSCULAR HEMOGLOBIN: 22.7 pg
  MEAN CORPUSCULAR HEMOGLOBIN CONCENTRATION: 36.67 G/DL
  MEAN CORPUSCULAR VOLUME: 61.9 fL
  MONOCYTE: 3%
  NEUTROPHIL: 12.33%
  NUCLEATED RED BLOOD CELLS: 0 /100WBC
  PLATELET COUNT: 1139 x10E3/uL
Rattus norvegicus [2]; tissue Plasma
  ALANINE AMINOTRANSFERASE: 61.33 u/L
  ALBUMIN: 4.37 G/DL
  ALKALINE PHOSPHATASE: 327.67 u/L
  ASPARTATE AMINOTRANSFERASE: 116 u/L
  BLOOD UREA NITROGEN: 15.67 mg/dL
  CARBON DIOXIDE: 34.33 mmol/L
  CHLORIDE: 101.33 MEQ/L
  CHOLESTEROL: 76 mg/dL
  CREATININE: 0.2 mg/dL
  GLUCOSE: 153.67 mg/dL
  LACTATE DEHYDROGENASE: 163.33 u/L
  LIPASE: 9 u/L
  PHOSPHORUS: 12.6 mg/dL
  POTASSIUM: 6.66 MEQ/L
  SODIUM: 148.6 MEQ/L
  TOTAL BILIRUBIN: 0.2 mg/dL
  TOTAL PROTEIN: 6.3 G/DL
  URIC ACID: 1.2 mg/dL
